{"source": "patent US11207310B2", "about": "(PRILENIA NEUROTHERAPEUTICS LTD., priority 2016, dated 2021)", "tested_on": "patients with HD", "description": "The study also compared data from all patients to those obtained in HD subpopulations.\nThe primary efficacy variable and endpoint for this study was change from baseline in the UHDRS TMS (defined as the sum of all UHDRS motor domains ratings) at Week 26 or Week 52. The primary measure of motor impairment is the UHDRS motor assessment section, which was administered by a trained examiner. The first part of the motor assessment consisted of five TMS subscores, provided below. The sum total of all the 31 items is referred to as the Total Motor Score (TMS). The secondary efficacy variable and endpoint was change from baseline in the mPPT at Week 26 or Week 52.\nIt is a research tool which has been developed to provide a uniform assessment of the clinical features and course of HD. The TMS component of UHDRS comprises 31 assessments from the 15 items of the UHDRS, with each assessment rated on a 5-point scale from 0 (normal) to 4 (maximally abnormal).\nThe change from baseline in UHDRS-TMS was analyzed using a Repeated Measures model (SAS® MIXED procedure with REPEATED sub-command). The model includes the following fixed effects: categorical week in study by treatment interaction, center, neuroleptic use or no use, and baseline UHDRS-TMS score. The unstructured covariance matrix for repeated observations within patients was used.", "note": "Like-named read-outs stand apart in the source and are kept apart here.", "data": [{"smiles": "CCCN1CCC(c2cccc(S(C)(=O)=O)c2)CC1", "note": "[pridopidine, 4-[3-(methylsulfonyl)phenyl]-1-propyl-piperidine]", "values": [{"measurement": "TMS change from baseline versus historical placebo in HART and MermaiHD", "setting": "45 mg bid (FIG. 5a)", "result": "significant"}, {"measurement": "Change from baseline in TMS plotted over time", "setting": "45 mg bid, HD1 patients, after 52 weeks (FIG. 45b)", "result": "shows improvement in TMS score"}, {"measurement": "Change from baseline in UHDRS TMS, Δ to placebo", "setting": "45 mg bid, Week 26, ALL", "result": 1.42}, {"measurement": "Change from baseline in UHDRS TMS, Δ to placebo", "setting": "45 mg bid, Week 26, Stage 1 BL TFC 11-13", "result": "−4.47"}, {"measurement": "Change from baseline in UHDRS TMS, Δ to placebo", "setting": "45 mg bid, Week 52, ALL", "result": 0.59}, {"measurement": "Change from baseline in UHDRS TMS, Wk52 Δ to placebo", "setting": "45 mg bid, Week 52, Stage 1 BL TFC 11-13", "result": "−5.32"}, {"measurement": "Change from baseline in UHDRS TMS, Δ to placebo", "setting": "67.5 mg bid, Week 26, ALL", "result": 1.71}, {"measurement": "Change from baseline in UHDRS TMS, Δ to placebo", "setting": "67.5 mg bid, Week 26, Stage 1 BL TFC 11-13", "result": "−3"}, {"measurement": "Change from baseline in UHDRS TMS, Δ to placebo", "setting": "67.5 mg bid, Week 52, ALL", "result": 2.55}, {"measurement": "Change from baseline in UHDRS TMS, Wk52 Δ to placebo", "setting": "67.5 mg bid, Week 52, Stage 1 BL TFC 11-13", "result": "−0.84"}, {"measurement": "TMS change from baseline versus historical placebo in HART and MermaiHD", "setting": "90 mg bid (FIG. 5a)", "result": "significant"}, {"measurement": "Change from baseline in UHDRS TMS, Δ to placebo", "setting": "90 mg bid, Week 26, ALL", "result": 0.67}, {"measurement": "UHDRS TMS score at week 26 compared to baseline", "setting": "90 mg bid, Week 26, BL TFC 11-13 (HD1), read from FIG. 8b", "result": "about −8"}, {"measurement": "Change from baseline in UHDRS TMS, Δ to placebo", "setting": "90 mg bid, Week 26, Stage 1 BL TFC 11-13", "result": "−6.15"}, {"measurement": "Change from baseline in UHDRS TMS, Δ to placebo", "setting": "90 mg bid, Week 52, ALL", "result": 1.78}, {"measurement": "Change from baseline in UHDRS TMS, Wk52 Δ to placebo", "setting": "90 mg bid, Week 52, Stage 1 BL TFC 11-13", "result": "−7.1"}, {"measurement": "Total Motor Score (TMS) Change from Baseline", "setting": "90 mg bid, weeks 4-26 (FIG. 3)", "result": "largest treatment effect"}, {"measurement": "Change from baseline in UHDRS TMS, Δ to placebo", "setting": "112.5 mg bid, Week 26, ALL", "result": 2.1}, {"measurement": "Change from baseline in UHDRS TMS, Δ to placebo", "setting": "112.5 mg bid, Week 26, Stage 1 BL TFC 11-13", "result": "−4.79"}, {"measurement": "Change from baseline in UHDRS TMS, Δ to placebo", "setting": "112.5 mg bid, Week 52, ALL", "result": 2.71}, {"measurement": "Change from baseline in UHDRS TMS, Wk52 Δ to placebo", "setting": "112.5 mg bid, Week 52, Stage 1 BL TFC 11-13", "result": "−0.92"}, {"measurement": "primary endpoint: change in TMS from baseline to week 26 compared with placebo", "setting": "PRIDE-HD, 45 mg to 112.5 mg bid", "result": "did not meet the primary endpoint"}, {"measurement": "TMS in the PRIDE-HD study", "setting": "all doses, week 26", "result": "showed improvement at all doses at week 26, but did not reach statistical significance"}]}]}
